Patent US10457687B2, “Aminoacid derivatives, a process for their preparation and pharmaceutical compositions containing them” (LES LABORATOIRES SERVIER, priority 2015, dated 2019)

Biological target: Mcl-1 protein (Homo sapiens, UniProt Q07820)
Experiment: Inhibition of Mcl-1 by the fluorescence polarisation technique (Method 1 or Method 2)
Format: binding
Conditions: fluorescence polarisation, Fluorescein labelled ligand; Method 1 (not underlined) or Method 2 (underlined); read-out: IC50 (μM) Mcl-1 FP
Protocol: The relative binding potency of each compound was determined via Fluorescence Polarisation (FP).
An 11 point serial dilution of each compound was prepared in DMSO and 2 μl transferred into flat bottomed, low binding, 384-well plate (final DMSO concentration 5%). 38 μl of buffer (10 mM 4-(2-hydroxyethyl)-1-piperazineethanesulfonic acid [HEPES], 150 mM NaCl, 0.05% Tween 20, pH 7.4), containing the Fluorescein labelled ligand (final concentration 1 nM) and Mcl-1 protein (final concentration 5 nM) was then added.
An 11 point serial dilution of each compound was prepared in DMSO and 2 μl transferred into flat bottomed, low binding, 384-well plate (final DMSO concentration 5%). 38 μl of buffer (20 mM Na2HPO4, 1 mM EDTA, 50 mM NaCl, pH 7.4), containing the Fluorescein labelled ligand (final concentration 10 nM) and Mcl-1 protein (final concentration 10 nM) was then added.

Chain of Mcl-1 protein (Q07820 whole entry): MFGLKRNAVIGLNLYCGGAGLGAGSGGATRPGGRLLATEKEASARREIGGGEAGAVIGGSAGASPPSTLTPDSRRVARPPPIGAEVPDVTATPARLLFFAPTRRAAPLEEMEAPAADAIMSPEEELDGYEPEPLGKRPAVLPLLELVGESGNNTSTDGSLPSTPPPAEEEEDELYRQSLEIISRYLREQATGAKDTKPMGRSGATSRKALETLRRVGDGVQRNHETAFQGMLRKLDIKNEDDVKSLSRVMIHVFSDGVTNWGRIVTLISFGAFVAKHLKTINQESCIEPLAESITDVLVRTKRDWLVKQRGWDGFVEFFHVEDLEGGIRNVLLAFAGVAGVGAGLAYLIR

| SMILES | IC50 |
| --- | --- |
| O=C(O)C(Cc1ccccn1)Nc1ncnc2sc(C(F)F)c(-c3cccc4ccccc34)c12 [Example 251, N-[6-(difluoromethyl)-(5Ra)-5-(naphthalen-1-yl)thieno[2,3-d]pyrimidin-4-yl]-3-pyridin-2-yl-D-alanine] | 12.1 µM |
| CCc1sc2ncnc(NC(Cc3ccccc3OCCN(C)C)C(=O)O)c2c1-c1cccc(Cl)c1C [Example 156, N-[(5Sa)-5-(3-chloro-2-methylphenyl)-6-ethylthieno[2,3-d]pyrimidin-4-yl]-2-[2-(dimethylamino)ethoxy]-D-phenylalanine] | 0.309 µM |
| CCc1sc2ncnc(NC(Cc3ccccc3OCc3cccc(Cl)c3)C(=O)O)c2c1-c1cccc(Cl)c1C [Example 149, 2-[(3-chlorobenzyl)oxy]-N-[(5Ra)-5-(3-chloro-2-methylphenyl)-6-ethylthieno[2,3-d]pyrimidin-4-yl]-D-phenylalanine] | 14 µM |
| O=C(O)C(Cc1ccccn1)Nc1ncnc2sc(C(F)F)c(-c3cccc4ccccc34)c12 [Example 250, N-[6-(difluoromethyl)-(5Sa)-5-(naphthalen-1-yl)thieno[2,3-d]pyrimidin-4-yl]-3-pyridin-2-yl-D-alanine] | 0.617 µM |
| O=C(O)[C@@H](Cc1ccccc1)Nc1ncnc2sc(I)c(-c3cccc4ccccc34)c12 [Example 211, N-[6-iodo-5-(naphthalen-1-yl)thieno[2,3-d]pyrimidin-4-yl]-D-phenylalanine] | 0.668 µM |
| CCc1sc2ncnc(NC(Cc3ccccc3)C(=O)O)c2c1-c1ccc(OCCN2CCOCC2)c(Cl)c1C [Example 61, N-((5Sa)-5-{3-chloro-2-methyl-4-[2-(morpholin-4-yl)ethoxy]phenyl}-6-ethylthieno[2,3-d]pyrimidin-4-yl)-D-phenylalanine] | 0.036 µM |
| CCc1sc2ncnc(NC(Cc3ccccc3C(F)(F)F)C(=O)O)c2c1-c1cccc(Cl)c1C [Example 138, N-[(5Sa)-5-(3-chloro-2-methylphenyl)-6-ethylthieno[2,3-d]pyrimidin-4-yl]-2-(trifluoromethyl)-D-phenylalanine] | 0.664 µM |
| CCc1sc2ncnc(NC(Cc3ccccc3)C(=O)O)c2c1-c1ccc(OCCN2CCN(C)CC2)c(Cl)c1C [Example 62, N-((5Sa)-5-{3-chloro-2-methyl-4-[2-(4-methylpiperazin-1-yl)ethoxy]phenyl}-6-ethylthieno[2,3-d]pyrimidin-4-yl)-D-phenylalanine] | 0.06 µM |
| CCc1sc2ncnc(NC(Cc3ccccc3)C(=O)O)c2c1-c1ccc(OCCN(C)C)c(Cl)c1C [Example 59, N-((5Sa)-5-{3-chloro-4-[2-(dimethylamino)ethoxy]-2-methylphenyl}-6-ethylthieno[2,3-d]pyrimidin-4-yl)-L-phenylalanine] | 0.127 µM |
| CCc1sc2ncnc(NC(Cc3ccccc3)C(=O)O)c2c1-c1cccc2c1c(Cl)cn2CCN1CCCC1 [Example 233, N-((5Sa)-5-{3-chloro-1-[2-(pyrrolidin-1-yl)ethyl]-1H-indol-4-yl}-6-ethyl-thieno[2,3-d]pyrimidin-4-yl)-D-phenylalanine] | 3.41 µM |
| CCc1sc2ncnc(N[C@@H](C(=O)O)c3cccc(-c4ccccc4)c3)c2c1-c1cccc2ccccc12 (single isomer, unassigned) [Example 189] | 8.33 µM |
| Cc1sc2ncnc(N[C@H](Cc3ccccc3)C(=O)O)c2c1-c1cccc2ccccc12 [Example 196, N-[6-methyl-5-(naphthalen-1-yl)thieno[2,3-d]pyrimidin-4-yl]-D-phenylalanine] | 2.91 µM |
| CCc1sc2ncnc(NC(Cc3ccccn3)C(=O)O)c2c1-c1cccc2c1c(Cl)cn2CCN1CCN(C)CC1 [Example 248, N-((5Sa)-5-{3-chloro-1-[2-(4-methylpiperazin-1-yl)ethyl]-1H-indol-4-yl}-6-ethyl-thieno[2,3-d]pyrimidin-4-yl)-3-pyridin-2-yl-D-alanine] | 2.18 µM |
| CCc1sc2ncnc(NC(Cc3ccccc3OCc3cccc(Cl)c3)C(=O)O)c2c1-c1cccc(Cl)c1C [Example 150, 2-[(3-chlorobenzyl)oxy]-N-[(5Sa)-5-(3-chloro-2-methylphenyl)-6-ethylthieno[2,3-d]pyrimidin-4-yl]-D-phenylalanine] | 0.528 µM |
| CCc1sc2ncnc(NC(Cc3cccc(F)c3)C(=O)O)c2c1-c1cccc2ccccc12 [Example 178, N-[6-ethyl-(5Ra)-5-(naphthalen-1-yl)thieno[2,3-d]pyrimidin-4-yl]-3-fluoro-D-phenylalanine] | 3.23 µM |
| CCc1sc2ncnc(NC(Cc3ccccc3)C(=O)O)c2c1-c1cccc2ccccc12 [Example 101, N-[6-ethyl-(5Sa)-5-(naphthalen-1-yl)thieno[2,3-d]pyrimidin-4-yl]-D-phenylalanine] | 0.462 µM |
| CCc1sc2ncnc(N[C@H](Cc3cn(Cc4ccccc4)cn3)C(=O)O)c2c1-c1cccc2ccccc12 [Example 195, 1-benzyl-N-[6-ethyl-5-(naphthalen-1-yl)thieno[2,3-d]pyrimidin-4-yl]-D-histidine] | 14.2 µM |
| CCc1sc2ncnc(NC(Cc3ccccc3)C(=O)O)c2c1-c1cncc2ccccc12 [Example 81, N-[6-ethyl-(5Sa)-5-(isoquinolin-4-yl)thieno[2,3-d]pyrimidin-4-yl]-D-phenylalanine] | 20.2 µM |
| CCc1sc2ncnc(NC(CCc3ccccc3)C(=O)O)c2c1-c1cccc2ccccc12 [Example 171, (2R)-2-{[6-ethyl-(5Ra)-5-(naphthalen-1-yl)thieno[2,3-d]pyrimidin-4-yl]amino}-4-phenylbutanoic acid] | 2.77 µM |
| CCc1sc2ncnc(N[C@H](Cc3ccccc3C)C(=O)O)c2c1-c1cccc2ccccc12 (single isomer, unassigned) [Example 168, N-[6-ethyl-5-(naphthalen-1-yl)thieno[2,3-d]pyrimidin-4-yl]-2-methyl-D-phenylalanine] | 4.78 µM |
| CC=Cc1sc2ncnc(NC(Cc3ccccc3)C(=O)O)c2c1-c1cccc2ccccc12 [Example 108, N-{(5Sa)-5-(naphthalen-1-yl)-6-[(1E)-prop-1-en-1-yl]thieno[2,3-d]pyrimidin-4-yl}-D-phenylalanine] | 0.079 µM |
| CC(C)c1sc2ncnc(N[C@H](Cc3ccccc3)C(=O)O)c2c1-c1cccc2ccccc12 (single isomer, unassigned) [Example 201, N-[5-(naphthalen-1-yl)-6-(propan-2-yl)thieno[2,3-d]pyrimidin-4-yl]-D-phenylalanine] | 0.136 µM |
| CCc1sc2ncnc(NC(Cc3ccccc3)C(=O)O)c2c1-c1cc(Cl)c(OCCN2CCN(C)CC2)c(Cl)c1C [Example 54, N-((5Sa)-5-{3,5-dichloro-2-methyl-4-[2-(4-methylpiperazin-1-yl)ethoxy]phenyl}-6-ethylthieno[2,3-d]pyrimidin-4-yl)-D-phenylalanine] | 0.541 µM |
| CCc1sc2ncnc(NC(Cc3ccccc3)C(=O)O)c2c1-c1cccc2c1c(Cl)cn2CCN1CCOCC1 [Example 236, N-((5Ra)-5-{3-chloro-1-[2-(morpholin-4-yl)ethyl]-1H-indol-4-yl}-6-ethyl-thieno[2,3-d]pyrimidin-4-yl)-D-phenylalanine] | 13.5 µM |

Same assay, conditions: partial inhibitors; @ 50 μM test compound

| SMILES | percentage fluorescence polarisation inhibition, Mcl-1 FP |
| --- | --- |
| CCc1sc2ncnc(N[C@H](Cc3ccccc3[N+](=O)[O-])C(=O)O)c2c1-c1cccc(Cl)c1C [Example 135, N-[(5Ra)-5-(3-chloro-2-methylphenyl)-6-ethylthieno[2,3-d]pyrimidin-4-yl]-2-nitro-D-phenylalanine] | 75.25% @ 50 μM |
| CCc1sc2ncnc(N[C@H](Cc3ccccc3OCCCN(C)C)C(=O)O)c2c1-c1cccc(Cl)c1C [Example 157, N-[(5Ra)-5-(3-chloro-2-methylphenyl)-6-ethylthieno[2,3-d]pyrimidin-4-yl]-2-[3-(dimethylamino)propoxy]-D-phenylalanine] | 62.05% @ 50 μM |
| CCc1sc2ncnc(N[C@H](Cc3ccccc3OCCN3CCN(C)CC3)C(=O)O)c2c1-c1cccc(Cl)c1C [Example 153, N-[(5Ra)-5-(3-chloro-2-methylphenyl)-6-ethylthieno[2,3-d]pyrimidin-4-yl]-2-[2-(4-methylpiperazin-1-yl)ethoxy]-D-phenylalanine] | 75.7% @ 50 μM |
| CCc1sc2ncnc(NC(Cc3ccccc3OCCC3CCCC3)C(=O)O)c2c1-c1cccc(Cl)c1C [Example 143, N-[(5Ra)-5-(3-chloro-2-methylphenyl)-6-ethylthieno[2,3-d]pyrimidin-4-yl]-2-(2-cyclopentylethoxy)-D-phenylalanine] | 68.85% @ 50 μM |

Same assay, conditions: partial inhibitors; @ 100 μM test compound; 100 µM

| SMILES | percentage fluorescence polarisation inhibition, Mcl-1 FP |
| --- | --- |
| CC(O)c1sc2ncnc(N[C@H](Cc3ccccc3)C(=O)O)c2c1-c1cccc2ccccc12 (single isomer, unassigned) [Example 203, N-[6-(1-hydroxyethyl)-5-(naphthalen-1-yl)thieno[2,3-d]pyrimidin-4-yl]-D-phenylalanine] | 71.85% @ 100 μM |
| CC(O)c1sc2ncnc(N[C@H](Cc3ccccc3)C(=O)O)c2c1-c1cccc2ccccc12 (single isomer, unassigned) [Example 205, N-[6-(1-hydroxyethyl)-5-(naphthalen-1-yl)thieno[2,3-d]pyrimidin-4-yl]-D-phenylalanine] | 26.2% @ 100 μM |

Same assay, conditions: partial inhibitors; @ 200 μM test compound

| SMILES | percentage fluorescence polarisation inhibition, Mcl-1 FP |
| --- | --- |
| CCc1sc2ncnc(N[C@H](Cc3ccccc3)C(=O)O)c2c1-c1cccc2cnn(C)c12 [Example 89, N-[6-ethyl-(5Ra)-5-(1-methyl-1H-indazol-7-yl)thieno[2,3-d]pyrimidin-4-yl]-D-phenylalanine] | 72.13% @ 200 μM |
